{"source": "paper PMC4388264", "about": "“ANS complex of St John’s wort PR-10 protein with 28 copies in the asymmetric unit: a fiendish combination of pseudosymmetry with tetartohedral twinning” (Acta Crystallographica Section D: Biological Crystallography, 2015)", "molecular_target": "T1, Hyp-1 (Hypericum perforatum, UniProt Q8H1L1)", "T1 construct": "gene HYP1.1; recombinant Hyp-1 with an N-terminal hexapeptide extension (GIDPFW–) as a cloning artifact", "T1 sequence (Q8H1L1 1-159)": "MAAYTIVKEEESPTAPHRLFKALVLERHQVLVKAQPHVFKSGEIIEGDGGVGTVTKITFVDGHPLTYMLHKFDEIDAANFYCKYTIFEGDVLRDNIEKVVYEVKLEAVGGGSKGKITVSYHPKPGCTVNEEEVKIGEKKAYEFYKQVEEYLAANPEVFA", "assay": "crystal structure at […] Å and ITC (N = […]); fluorometric titration gave Kd […]", "format": "binding"}
{"smiles": "O=S(=O)(O)c1cccc2cccc(Nc3ccccc3)c12", "note": "[ANS, 8-anilino-1-naphthalene sulfonate]", "values": [{"measurement": "Kd", "value": "108 ± 3", "unit": "µM"}]}
